Experimental data: US10994015B2, “EGFR proteolysis targeting chimeric molecules and associated methods of use” (Arvinas Operations, Inc., priority 2016, dated 2021)

Columns and labels:
EGFR L858R/T790M = EGFR L858R/T790M (Homo sapiens (Human), UniProt P00533, L858R/T790M); experiment: TR-FRET assay for ERBB kinases; type: biochemical; settings: geometric mean if measured more than once
Procedure, shortened: (§1)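 Read-out is TR-FRET between a terbium anti-phosphotyrosine (pY20) antibody and phosphorylated fluorescein-labelled poly-GluTyr, excited at 340 nm with donor 490 nm and acceptor 520 nm emission. Phosphorylation ran 10 min at room temperature after a 10 min compound–enzyme pre-incubation. The substrate mix contained 3 mM ATP.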

EGFR L858R/T790M/C797S = EGFR L858R/T790M/C797S (Homo sapiens (Human), UniProt P00533, C797S/L858R/T790M); experiment: TR-FRET assay for ERBB kinases; type: biochemical; settings: geometric mean if measured more than once
EGFR L858R/T790M/C797S, sequence (P00533 25-1210 T790M/C797S/L858R): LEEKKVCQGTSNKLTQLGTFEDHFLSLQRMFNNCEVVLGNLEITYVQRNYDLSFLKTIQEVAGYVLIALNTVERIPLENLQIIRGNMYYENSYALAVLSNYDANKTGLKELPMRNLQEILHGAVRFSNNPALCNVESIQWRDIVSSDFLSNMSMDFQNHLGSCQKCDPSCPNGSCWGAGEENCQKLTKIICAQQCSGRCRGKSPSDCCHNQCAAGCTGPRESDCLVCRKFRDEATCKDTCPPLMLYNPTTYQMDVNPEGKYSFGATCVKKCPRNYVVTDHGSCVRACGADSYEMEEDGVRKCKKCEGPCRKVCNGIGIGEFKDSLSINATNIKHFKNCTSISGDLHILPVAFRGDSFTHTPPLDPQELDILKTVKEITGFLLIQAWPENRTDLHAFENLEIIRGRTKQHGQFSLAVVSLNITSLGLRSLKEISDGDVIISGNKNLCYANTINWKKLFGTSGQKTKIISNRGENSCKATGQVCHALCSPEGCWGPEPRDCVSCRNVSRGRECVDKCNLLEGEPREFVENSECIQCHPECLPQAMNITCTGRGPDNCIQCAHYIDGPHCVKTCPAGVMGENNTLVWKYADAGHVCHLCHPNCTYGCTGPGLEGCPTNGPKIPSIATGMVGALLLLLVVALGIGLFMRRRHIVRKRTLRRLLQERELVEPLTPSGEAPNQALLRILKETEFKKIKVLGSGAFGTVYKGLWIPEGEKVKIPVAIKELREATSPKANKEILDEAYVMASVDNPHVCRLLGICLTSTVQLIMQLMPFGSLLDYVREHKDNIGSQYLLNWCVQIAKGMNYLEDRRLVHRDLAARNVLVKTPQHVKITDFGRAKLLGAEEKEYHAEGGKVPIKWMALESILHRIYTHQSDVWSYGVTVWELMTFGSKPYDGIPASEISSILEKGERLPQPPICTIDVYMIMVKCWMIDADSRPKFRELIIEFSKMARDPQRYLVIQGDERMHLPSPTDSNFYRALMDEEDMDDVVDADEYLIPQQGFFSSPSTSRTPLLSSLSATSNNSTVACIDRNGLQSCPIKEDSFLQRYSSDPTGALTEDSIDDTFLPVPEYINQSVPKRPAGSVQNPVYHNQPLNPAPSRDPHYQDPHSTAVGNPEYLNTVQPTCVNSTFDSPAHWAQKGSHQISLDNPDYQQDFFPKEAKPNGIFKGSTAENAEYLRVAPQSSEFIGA
Procedure, shortened: as §1

EGFR WT = EGFR WT (Homo sapiens (Human), UniProt P00533); experiment: TR-FRET assay for ERBB kinases; type: biochemical; settings: geometric mean if measured more than once
EGFR WT, sequence (P00533 25-1210): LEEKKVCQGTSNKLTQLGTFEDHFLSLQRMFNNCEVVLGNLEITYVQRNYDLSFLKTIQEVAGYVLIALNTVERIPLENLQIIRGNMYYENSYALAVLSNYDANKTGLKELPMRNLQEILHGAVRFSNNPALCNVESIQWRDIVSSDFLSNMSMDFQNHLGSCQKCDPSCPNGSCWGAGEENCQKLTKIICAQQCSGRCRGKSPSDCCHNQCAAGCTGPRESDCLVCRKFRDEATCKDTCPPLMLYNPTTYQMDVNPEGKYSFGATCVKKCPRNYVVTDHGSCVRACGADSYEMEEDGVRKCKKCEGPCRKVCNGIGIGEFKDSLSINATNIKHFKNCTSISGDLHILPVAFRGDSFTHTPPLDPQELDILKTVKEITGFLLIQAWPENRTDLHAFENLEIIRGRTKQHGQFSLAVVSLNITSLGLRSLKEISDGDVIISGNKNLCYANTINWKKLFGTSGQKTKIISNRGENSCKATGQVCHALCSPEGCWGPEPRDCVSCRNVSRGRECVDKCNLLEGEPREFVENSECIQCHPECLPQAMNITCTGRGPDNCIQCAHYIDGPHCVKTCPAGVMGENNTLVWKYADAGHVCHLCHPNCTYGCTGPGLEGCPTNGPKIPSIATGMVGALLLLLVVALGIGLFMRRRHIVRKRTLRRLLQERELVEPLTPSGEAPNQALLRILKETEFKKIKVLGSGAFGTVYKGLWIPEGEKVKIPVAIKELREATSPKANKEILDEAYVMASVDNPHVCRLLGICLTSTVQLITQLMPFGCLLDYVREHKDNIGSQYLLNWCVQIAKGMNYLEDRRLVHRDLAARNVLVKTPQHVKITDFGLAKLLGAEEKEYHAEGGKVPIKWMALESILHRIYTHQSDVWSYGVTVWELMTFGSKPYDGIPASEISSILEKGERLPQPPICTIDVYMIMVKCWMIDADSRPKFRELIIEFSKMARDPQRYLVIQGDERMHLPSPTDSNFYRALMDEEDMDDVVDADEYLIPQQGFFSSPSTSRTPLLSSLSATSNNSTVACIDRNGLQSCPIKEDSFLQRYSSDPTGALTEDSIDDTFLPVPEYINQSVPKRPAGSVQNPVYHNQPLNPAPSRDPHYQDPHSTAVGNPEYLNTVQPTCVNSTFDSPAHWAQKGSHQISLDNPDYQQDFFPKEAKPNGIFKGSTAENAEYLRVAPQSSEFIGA
Procedure, shortened: as §1

EGFR Exon20NPG = EGFR Exon20NPG (Homo sapiens (Human), UniProt P00533, INS770NPG); experiment: TR-FRET assay for ERBB kinases; type: biochemical; settings: geometric mean if measured more than once
Procedure, shortened: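 Compounds pre-incubated 10 min with kinase in HEPES pH 7.5 buffer (MgCl2, DTT, Pluronic), then reaction started with substrate mix (3 mM ATP, 30 µM fluorescein-poly-GluTyr, stock levels) for 10 min at room temperature. EDTA-quenched, detected by Tb-pY20 antibody TR-FRET (520/490 nm emission).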

[1] = target: EGFR L858R/T790M double mutant (H1975) (Homo sapiens (Human), UniProt P00533, L858R/T790M); experiment: EGFR protein degradation assay (Western blot); type: cell-based; settings: 72 hours, 300 nM to 10 nM
EGFR L858R/T790M double mutant (H1975), sequence (P00533 25-1210 T790M/L858R): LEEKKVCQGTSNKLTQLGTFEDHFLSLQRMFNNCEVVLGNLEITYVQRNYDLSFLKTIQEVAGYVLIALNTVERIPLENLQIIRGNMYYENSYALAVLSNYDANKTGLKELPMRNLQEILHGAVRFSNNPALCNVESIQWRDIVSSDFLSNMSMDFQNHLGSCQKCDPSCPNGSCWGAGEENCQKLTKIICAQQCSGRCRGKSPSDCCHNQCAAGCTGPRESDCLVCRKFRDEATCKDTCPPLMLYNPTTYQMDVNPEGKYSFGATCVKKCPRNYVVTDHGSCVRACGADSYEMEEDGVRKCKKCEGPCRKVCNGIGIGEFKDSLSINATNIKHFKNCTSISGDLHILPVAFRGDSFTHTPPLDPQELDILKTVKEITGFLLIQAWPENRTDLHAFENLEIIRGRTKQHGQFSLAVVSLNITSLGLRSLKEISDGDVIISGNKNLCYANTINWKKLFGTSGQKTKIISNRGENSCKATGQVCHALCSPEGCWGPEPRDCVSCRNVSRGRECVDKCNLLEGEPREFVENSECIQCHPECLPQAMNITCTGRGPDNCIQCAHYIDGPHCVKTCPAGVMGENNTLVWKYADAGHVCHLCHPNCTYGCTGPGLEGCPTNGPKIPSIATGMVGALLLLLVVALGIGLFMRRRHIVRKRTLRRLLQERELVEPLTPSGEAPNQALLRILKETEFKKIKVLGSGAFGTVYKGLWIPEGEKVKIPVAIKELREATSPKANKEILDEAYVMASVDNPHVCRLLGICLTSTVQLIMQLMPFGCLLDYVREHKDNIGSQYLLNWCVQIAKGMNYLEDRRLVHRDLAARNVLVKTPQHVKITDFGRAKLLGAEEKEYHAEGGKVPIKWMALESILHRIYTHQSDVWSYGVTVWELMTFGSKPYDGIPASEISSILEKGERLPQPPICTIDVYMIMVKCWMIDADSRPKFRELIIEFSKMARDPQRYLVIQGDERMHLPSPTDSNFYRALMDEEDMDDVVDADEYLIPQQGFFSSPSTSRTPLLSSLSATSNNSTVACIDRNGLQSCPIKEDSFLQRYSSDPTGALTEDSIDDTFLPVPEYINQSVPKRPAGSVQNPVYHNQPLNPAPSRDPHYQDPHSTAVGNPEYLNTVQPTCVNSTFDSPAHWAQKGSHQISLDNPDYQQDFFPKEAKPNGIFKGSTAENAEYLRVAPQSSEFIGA
Procedure, shortened: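 Cells carrying the relevant EGFR form were plated at 300,000 cells per well in 6-well plates and left to attach overnight. After washing in ice-cold PBS, cells were lysed in 400 μl lysis buffer with protease inhibitors, scraped, and clarified at 10 000 rpm for 10 minutes. EGFR levels were then assessed by Western blot with tubulin as loading control.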

[2] = target: EGFR L858R/T790M/C797S triple mutant (H520*) (Homo sapiens (Human), UniProt P00533, C797S/L858R/T790M); experiment: EGFR protein degradation assay (Western blot); type: cell-based; settings: 72 hours, 300 nM to 10 nM
EGFR L858R/T790M/C797S triple mutant (H520*), sequence (P00533 25-1210 T790M/C797S/L858R): as the sequence (P00533 25-1210 T790M/C797S/L858R) above
Method: EGFR Protein Degradation assay
Cells were incubated overnight at 37° C., 5% CO2 prior to compound addition. A 10 mM compound stock in DMSO was serially diluted in DMSO to provide the following stock concentrations: 1, 0.3, 0.1, 0.03 and 0.01 mM. An appropriate volume of each compound dilution, together with a DMSO vehicle control, was added to media to provide a 2× compound solution. […] At the end of the compound treatment, cells were washed once with ice-cold phosphate-buffered saline (PBS) and treated with lysis solution (1× lysis buffer, Cell Signaling Technologies (CST #9803) supplemented with Piarce™ protease inhibitors, #A32953, Thermo Fisher Scientific, TFS). Lysates were collected and clarified of cell debris by spinning at 10K rpm for 10 minutes. A specific volume of supernatant was retrieved for protein quantification (Pierce™ BCA kit, TFS #23225) and for Western analysis. Loading buffer supplemented with EDTA and reducing agent was added to each supernatant. A specific volume of supernatant (determined by protein assay: […] loaded per sample) was loaded into a NuPAGE™ 4-12% Bis-Tris gel (TFS). Samples were run at 165V in MOPS running buffer for 2 hours and then transferred to PVDF blotting membrane using a dry blotting system (iBlot2, TFS). Membranes were blocked in Tris-buffered saline supplemented with Tween, 0.1% (TBST) containing 5% non-fat dry milk, (AmericanBio). Following block, membranes were washed once with TBST. […] Membranes were washed 3× with TBST prior to addition of secondary antibody (1:10 000, anti-rabbit HRP-linked, CST #7074) in TBST with 3% BSA and then incubated at room temperature for one hour. Membranes were then washed 3× with TBS and signal developed by exposure to developer (SuperSignal West Femto, TFS) for 5 minutes. Membranes were then immediately imaged using a BioRad Chemidoc.

SMILES: Cc1ncsc1-c1ccc(CNC(=O)[C@@H]2C[C@@H](O)CN2C(=O)[C@H](C(C)C)N2Cc3ccccc3C2=O)c(OCCOCCOCCOCCOCC#Cc2cccc3c2C(=O)N([C@@H](C(=O)Nc2nccs2)c2cc(F)ccc2O)C3)c1 [compound 259]
- IC50 (EGFR L858R/T790M): 3.1 µM
- IC50 (EGFR L858R/T790M/C797S): 0.55 µM
- IC50 (EGFR WT): 2.1 µM
- IC50 (EGFR Exon20NPG): 2.1 µM
- EGFR protein remaining, EGFR L858R/T790M double mutant [1]: C (>80% EGFR protein remaining after 72 hours of incubation with the test compound at a concentration of 300 nM)
- EGFR protein remaining, EGFR L858R/T790M/C797S triple mutant [2]: C (>80% EGFR protein remaining after 72 hours of incubation with the test compound at a concentration of 300 nM)

SMILES: Cc1ncsc1-c1ccc([C@H](C)NC(=O)[C@H]2C[C@H](O)CN2C(=O)[C@@H](NC(=O)COCCCC#Cc2cccc3c2C(=O)N(C(C(=O)Nc2nccs2)c2cc(F)ccc2O)C3)C(C)(C)C)cc1 (stereo partly drawn) [compound 92]
- IC50 (EGFR L858R/T790M): 6.2 µM
- IC50 (EGFR L858R/T790M/C797S): 1.1 µM
- IC50 (EGFR WT): 9.8 µM
- IC50 (EGFR Exon20NPG): 3.1 µM
- EGFR protein remaining, EGFR L858R/T790M double mutant [1]: C (>80% EGFR protein remaining after 72 hours of incubation with the test compound at a concentration of 300 nM)
- EGFR protein remaining, EGFR L858R/T790M/C797S triple mutant [2]: C (>80% EGFR protein remaining after 72 hours of incubation with the test compound at a concentration of 300 nM)

SMILES: O=C1CCC(N2C(=O)c3ccc(N4CCN(CCCOCCCC#Cc5cccc6c5C(=O)N(C(C(=O)Nc5nccs5)c5cc(F)ccc5O)C6)CC4)cc3C2=O)C(=O)N1 (stereo not drawn) [compound 95]
- IC50 (EGFR L858R/T790M): 6.7 µM
- IC50 (EGFR L858R/T790M/C797S): 2.2 µM
- IC50 (EGFR WT): 4.2 µM
- IC50 (EGFR Exon20NPG): 3.3 µM
- EGFR protein remaining, EGFR L858R/T790M double mutant [1]: C (>80% EGFR protein remaining after 72 hours of incubation with the test compound at a concentration of 300 nM)
- EGFR protein remaining, EGFR L858R/T790M/C797S triple mutant [2]: C (>80% EGFR protein remaining after 72 hours of incubation with the test compound at a concentration of 300 nM)

SMILES: COC1CCN(c2nccc(Nc3cc4c(cn3)nc(COCCOCCN3CCN(CCCCc5ccc6c(c5)C(=O)N(C5CCC(=O)NC5=O)C6=O)CC3)n4C(C)C)n2)CC1 (stereo not drawn) [compound 87]
- IC50 (EGFR L858R/T790M): 15 µM
- IC50 (EGFR L858R/T790M/C797S): 3.3 µM
- IC50 (EGFR WT): > 30 µM
- IC50 (EGFR Exon20NPG): 14 µM
- EGFR protein remaining, EGFR L858R/T790M double mutant [1]: C (>80% EGFR protein remaining after 72 hours of incubation with the test compound at a concentration of 300 nM)
- EGFR protein remaining, EGFR L858R/T790M/C797S triple mutant [2]: C (>80% EGFR protein remaining after 72 hours of incubation with the test compound at a concentration of 300 nM)

SMILES: Cc1ncsc1-c1ccc(CNC(=O)[C@@H]2C[C@@H](O)CN2C(=O)[C@H](C(C)C)N2Cc3ccccc3C2=O)c(OCCOCCOCCOCCOCCOCC#Cc2cccc3c2C(=O)N([C@@H](C(=O)Nc2nccs2)c2cc(F)ccc2O)C3)c1 [compound 260]
- IC50 (EGFR L858R/T790M): 20 µM
- IC50 (EGFR L858R/T790M/C797S): 0.56 µM
- IC50 (EGFR WT): 3.2 µM
- IC50 (EGFR Exon20NPG): > 30 µM
- EGFR protein remaining, EGFR L858R/T790M double mutant [1]: C (>80% EGFR protein remaining after 72 hours of incubation with the test compound at a concentration of 300 nM)
- EGFR protein remaining, EGFR L858R/T790M/C797S triple mutant [2]: C (>80% EGFR protein remaining after 72 hours of incubation with the test compound at a concentration of 300 nM)

SMILES: Cc1ncsc1-c1ccc([C@H](C)NC(=O)[C@H]2C[C@H](O)CN2C(=O)[C@@H](NC(=O)COCCCOCCCC#Cc2cccc3c2C(=O)N(C(C(=O)Nc2nccs2)c2cc(F)ccc2O)C3)C(C)(C)C)cc1 (stereo partly drawn) [compound 93]
- IC50 (EGFR L858R/T790M): 3.5 µM
- IC50 (EGFR L858R/T790M/C797S): 0.53 µM
- IC50 (EGFR WT): 11 µM
- IC50 (EGFR Exon20NPG): 3.3 µM
- EGFR protein remaining, EGFR L858R/T790M double mutant [1]: C (>80% EGFR protein remaining after 72 hours of incubation with the test compound at a concentration of 300 nM)
- EGFR protein remaining, EGFR L858R/T790M/C797S triple mutant [2]: C (>80% EGFR protein remaining after 72 hours of incubation with the test compound at a concentration of 300 nM)
